In patent US20240287110A1, “PHOSPHATE OF TRIFLUOROMETHYL-SUBSTITUTED SULFONAMIDE COMPOUND” (CHIA TAI TIANQING PHARMACEUTICAL GROUP CO., LTD., priority 2021, published 2024) one finds IC50 and solubility data, which are given here for 2 compounds.

≈ marks a conversion by molar mass, not a printed value.

One series addresses T1, BCL-XL/BAK (Homo sapiens, UniProt Q07817).
T1 construct: purchased Cisbio 63ADK000CB04PEH
In words: Screening on inhibitory activity for BCL-XL/BAK binding (Cisbio HTRF kit). As to conditions: Tag1-BCL-XL / Tag2-BAK binding, 25° C. Here is the method:
A 300 nM Tag1-BCL-XL protein stock solution and a 10 μM Tag2-BAK protein stock solution were diluted to 2 nM and 80 nM respectively with a dilution buffer in a kit (manufacturer: Cisbio, Cat. No.: 63ADK000CB04PEH). 5 μL of Tag1-BCL-XL protein diluent was added to each well, and then different compounds dissolved in DMSO were added to the wells using a nanoliter pipettor, allowing the final compound concentrations to be 2000 nM to 0.488 nM (4-fold gradient for 7 concentrations in total). Blank control wells (without enzyme) and negative control wells (with enzyme, plus vehicle DMSO) were set, and 2 replicate wells were set. Finally, 5 μL of Tag2-BAK protein diluent was added to each well, and the mixture was mixed well by centrifugation and incubated at 25° C. for 15 min. 100× anti-Tag1-Eu^3+ and 100× anti-Tag2-XL665 were both diluted to 1× working concentration with a detection buffer in the kit. Anti-Tag1-Eu^3+ and anti-Tag2-XL665 were mixed well in a 1:1 ratio, and 5 μL of the mixture was added to each well. The resulting mixture was incubated at 25° C. for 2 h or more. The plate was read using a PE Envision multi-functional microplate reader (excitation: 620 nm, emission: 665 nm), and IC50 (shown in Table 1) was calculated by four-parameter fitting.
For orientation: Time-resolved FRET reads energy transfer from a long-lived donor to a nearby acceptor.

The test system of a further series is RS4; 11 cells. In words: Inhibitory effect on proliferation of RS4; 11 cells (CCK-8). Format: cell-based. The conditions noted are these: Homo sapiens, 72 h, CCK-8, 5% serum. Here is the method: RS4; 11 cells in logarithmic growth phase and good cell condition were added to a centrifuge tube and centrifuged at 1500 rpm for 3 min in a low speed centrifuge. The supernatant was discarded, and 5 mL of complete medium (RPMI basic medium+10% FBS) was added using a pipette for cell resuspension. The cells were counted using a cell counter and diluted with complete medium to a cell density of 2×10^5 cells/mL, and then an equivalent amount of RPMI basic medium was added to adjust the serum concentration to 5% and the cell density to 1×10^5 cells/mL for plate seeding. The cells were seeded on a 96-well plate at […] using a multi-channel pipette and cultured in a cell incubator at 37° C., 5% CO2 with saturated humidity. After 24 h of incubation, compounds (500-0.1 nM) were loaded using a nanoliter pipettor, 2 replicate wells were set for each concentration, and cells without compound were used as negative controls. After 72 h, CCK-8 was added at 10 μL/well for incubation for 4 h, then absorbance was measured at 450 nm with an Envision plate reader, and inhibition rate was calculated. […] A dose-response curve was fitted by four-parameter analysis, with the logarithm of compound concentration as abscissa and inhibition rate as ordinate, so that IC50 was calculated (see Table 2).

A short description of series [1]: Determination of solubility in water at pH 7.4. Format: physicochemical. The conditions noted are these: aqueous phosphate medium, aqueous buffer, thermodynamic from solid; pH 7.4, 25° C. Here is the method: Reagents used were 0.2 M NaOH (SinoPharm lot No. 20180223) and 0.2 M phosphate (SinoPharm 20180910, pH 7.4). Instruments/equipment used included a balance (HPLC Dionex U3000, Mettler XPE105DR), pipettes (TIANBO 0.5 mL and 0.1 mL), a thermostatic CNC shaker (ZWY-240, set at 25° C. and 200 rpm).
The example compounds were tested in an aqueous medium at 25° C. An excess of each example compound was weighed out and mixed with an aliquot of the target medium in a clear glass vial. The vial was sealed with a cap and then shaken in the shaker at 25° C. as appropriate. When equilibration was completed, the sample was removed from the shaker and the final pH was measured. The suspension was filtered through a 13 mm needle-type filter and a 0.22 m Syring Filter needle-type filter (hydrophilic PTFE-SA membrane, lot No. HKS13SATQ2B). Each filter was used for only one sample. The determination was carried out after the filtrate had been suitably diluted with the same solvent as used for the stock solution. The concentration of the sample was calculated based on a calibration curve of the compound.

The next series deals with T2, BCL-2/BAK (Homo sapiens, UniProt P10415).
T2 construct: purchased Cisbio 63ADK000CB01PEH
T2 sequence (P10415 whole entry, species assumed): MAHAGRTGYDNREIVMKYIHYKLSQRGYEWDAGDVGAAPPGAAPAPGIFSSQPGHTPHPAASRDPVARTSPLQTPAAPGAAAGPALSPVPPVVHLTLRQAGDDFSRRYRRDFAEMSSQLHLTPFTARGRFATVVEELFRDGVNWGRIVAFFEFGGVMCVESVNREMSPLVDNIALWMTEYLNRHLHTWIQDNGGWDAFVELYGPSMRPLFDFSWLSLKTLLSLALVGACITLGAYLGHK
In words: Screening on inhibitory activity for BCL-2/BAK binding (Cisbio HTRF kit). As to conditions: Tag1-BCL-2 / Tag2-BAK binding, 25° C. Here is the method:
A 500 nM Tag1-BCL-2 protein stock solution and a 20 μM Tag2-BAK protein stock solution were diluted to 5 nM and 120 nM respectively with a dilution buffer in a kit (manufacturer: Cisbio, Cat. No.: 63ADK000CB01PEH). […] of Tag1-BCL-2 protein diluent was added to each well, and then different compounds dissolved in DMSO were added to the wells using a nanoliter pipettor, allowing the final compound concentrations to be 200 nM to 0.0488 nM (4-fold gradient for 7 concentrations in total). Blank control wells (without enzyme) and negative control wells (with enzyme, plus vehicle DMSO) were set, and 2 replicate wells were set. Finally, 5 μL of Tag2-BAK protein diluent was added to each well, and the mixture was mixed well by centrifugation and incubated at 25° C. for 15 min. 100× anti-Tag1-Eu^3+ and 100× anti-Tag2-XL665 were both diluted to 1× working concentration with a detection buffer in the kit. Anti-Tag1-Eu^3+ and anti-Tag2-XL665 were mixed well in a 1:1 ratio, and 5 μL of the mixture was added to each well. The resulting mixture was incubated at 25° C. for 2 h or more. The plate was read using a PE Envision multi-functional microplate reader (excitation: 620 nm, emission: 665 nm), and IC50 (shown in Table 1) was calculated by four-parameter fitting.

The term IC50 denotes the concentration that gives 50% inhibition. What is called solubility is the dissolved amount per volume that the medium holds. Read a high solubility as a readily soluble substance.

T1 sequence (Q07817 whole entry, species assumed): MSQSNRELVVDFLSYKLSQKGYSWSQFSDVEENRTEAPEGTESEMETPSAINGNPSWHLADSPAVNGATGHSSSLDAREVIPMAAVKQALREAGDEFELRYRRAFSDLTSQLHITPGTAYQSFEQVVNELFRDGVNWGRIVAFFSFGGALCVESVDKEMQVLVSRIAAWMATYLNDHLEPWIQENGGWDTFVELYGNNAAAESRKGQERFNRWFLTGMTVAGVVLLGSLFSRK

For the compound `CC1(C)CCC(CN2CCN(c3ccc(C(=O)NS(=O)(=O)c4ccc(NC[C@H]5COCCO5)c([N+](=O)[O-])c4)c(Oc4cc5ccnc-5n(COP(=O)(O)O)c4)c3)CC2)=C(c2ccc(C(F)(F)F)cc2Cl)C1` [Example 1], the 50% inhibitory concentration (IC50) at BCL-XL/BAK is 0.328 µM; in the series on RS4; 11 cells, 0.0159 µM; at BCL-2/BAK it was 0.003 µM. This compound also showed a solubility in series [1] of 19.4 mg/mL (≈ 18.5 mM).
The corresponding values for `Cc1cc(C(F)(F)F)ccc1C1=C(CN2CCN(c3ccc(C(=O)NS(=O)(=O)c4ccc(NC[C@H]5COCCO5)c([N+](=O)[O-])c4)c(Oc4cc5ccnc-5n(COP(=O)(O)O)c4)c3)CC2)CCC(C)(C)C1` [Example 2] are 0.251 µM, 0.0148 µM, 0.0029 µM and 2.23 mg/mL (≈ 2.17 mM).
